Test results as given in patent US7750047B2, “Modulators (inhibitors/activators) of histone acetyltransferases” (Jawaharlal Nehru Centre for Advanced Scientific Research, priority 2002, dated 2010).
Like-named read-outs stand apart in the source and are kept apart here. Values belong to the molecule of their own block, whether it stands above or below them.

Key:
p300 [1] = target: T1, p300 (Homo sapiens, UniProt Q09472); test: HAT assay (filter binding) with p300 and core histones; assay type: biochemical; design: Full-length p300 was also purified from the recombinant baculovirus infected Sf21 cells as a His6-tagged protein; His6; made in house; host or cells: Sf21 insect cells (recombinant baculovirus)
Source text: (§1) B: Biochemical Methods: Purification of Human Core Histones and Recombinant Proteins-Human core histones were purified from HeLa nuclear pellet as described previously (12). The FLAG epitope tagged Human Topoisomerase I, histone deacetylase 1 (HDAC1) and PCAF, were purified from the recombinant baculovirus infected insect cell line, Si 217 by the immunoaffinity purification using M2-agarose (SIGMA)(13). Full-length p300 was also purified from the recombinant baculovirus infected Sf21 cells as a His6-tagged protein through the Ni-NTA affinity column (Qiagen) as described previously (12). The His6-tagged nucleosome assembly protein 1 (NAP1), used for the in vitro chromatin assembly was purified from E. coli cells as previously reported (12) and the FLAG-tagged chimeric activator Ga14-VP16, expressed in E. coli and purified by immunoaffinity purification with M2 agarose. Human positive transcriptional coactivator, PC4, was expressed in E. coli and purified as described earlier (14).
(§2) HAT assays were performed as described elsewhere (12). Briefly, indicated amounts of proteins/peptide were incubated in HAT-assay buffer containing 50 Mm Tris-HCl, Ph 8.0, 10% (v/v) glycerol, 1 Mm dithiothreitol, 1 Mm phenylmethyl sulfonyl fluoride, 0.1 Mm EDTA, Ph 8.0, 10 Mm sodium butyrate at 30° C. for 10 min in presence or absence of compound followed by the addition of 1 pi of 6.2 Ci/mmol [^3H]-acetyl Coenzyme A (acetyl-CoA) and were further incubated for another 10 min. The final reaction volume was 30 ul. The reaction mixture was then blotted onto P-81 (Whatman) filter papers and radioactive counts were recorded on a Wallac 1409 liquid scintillation counter.
In order to characterize the inhibition kinetics of anacardic acid, filter-binding assays were done using constant amount of HeLa core histones in the presence or absence of AA with increasing concentrations of [3H]-acetyl CoA (see FIG. 3E). To visualize the radiolabeled acetylated histones, the reaction mixtures were resolved on 15% SDS-PAGE and processed for fluorography as described elsewhere (14).
Target sequence in this assay (Q09472 whole entry): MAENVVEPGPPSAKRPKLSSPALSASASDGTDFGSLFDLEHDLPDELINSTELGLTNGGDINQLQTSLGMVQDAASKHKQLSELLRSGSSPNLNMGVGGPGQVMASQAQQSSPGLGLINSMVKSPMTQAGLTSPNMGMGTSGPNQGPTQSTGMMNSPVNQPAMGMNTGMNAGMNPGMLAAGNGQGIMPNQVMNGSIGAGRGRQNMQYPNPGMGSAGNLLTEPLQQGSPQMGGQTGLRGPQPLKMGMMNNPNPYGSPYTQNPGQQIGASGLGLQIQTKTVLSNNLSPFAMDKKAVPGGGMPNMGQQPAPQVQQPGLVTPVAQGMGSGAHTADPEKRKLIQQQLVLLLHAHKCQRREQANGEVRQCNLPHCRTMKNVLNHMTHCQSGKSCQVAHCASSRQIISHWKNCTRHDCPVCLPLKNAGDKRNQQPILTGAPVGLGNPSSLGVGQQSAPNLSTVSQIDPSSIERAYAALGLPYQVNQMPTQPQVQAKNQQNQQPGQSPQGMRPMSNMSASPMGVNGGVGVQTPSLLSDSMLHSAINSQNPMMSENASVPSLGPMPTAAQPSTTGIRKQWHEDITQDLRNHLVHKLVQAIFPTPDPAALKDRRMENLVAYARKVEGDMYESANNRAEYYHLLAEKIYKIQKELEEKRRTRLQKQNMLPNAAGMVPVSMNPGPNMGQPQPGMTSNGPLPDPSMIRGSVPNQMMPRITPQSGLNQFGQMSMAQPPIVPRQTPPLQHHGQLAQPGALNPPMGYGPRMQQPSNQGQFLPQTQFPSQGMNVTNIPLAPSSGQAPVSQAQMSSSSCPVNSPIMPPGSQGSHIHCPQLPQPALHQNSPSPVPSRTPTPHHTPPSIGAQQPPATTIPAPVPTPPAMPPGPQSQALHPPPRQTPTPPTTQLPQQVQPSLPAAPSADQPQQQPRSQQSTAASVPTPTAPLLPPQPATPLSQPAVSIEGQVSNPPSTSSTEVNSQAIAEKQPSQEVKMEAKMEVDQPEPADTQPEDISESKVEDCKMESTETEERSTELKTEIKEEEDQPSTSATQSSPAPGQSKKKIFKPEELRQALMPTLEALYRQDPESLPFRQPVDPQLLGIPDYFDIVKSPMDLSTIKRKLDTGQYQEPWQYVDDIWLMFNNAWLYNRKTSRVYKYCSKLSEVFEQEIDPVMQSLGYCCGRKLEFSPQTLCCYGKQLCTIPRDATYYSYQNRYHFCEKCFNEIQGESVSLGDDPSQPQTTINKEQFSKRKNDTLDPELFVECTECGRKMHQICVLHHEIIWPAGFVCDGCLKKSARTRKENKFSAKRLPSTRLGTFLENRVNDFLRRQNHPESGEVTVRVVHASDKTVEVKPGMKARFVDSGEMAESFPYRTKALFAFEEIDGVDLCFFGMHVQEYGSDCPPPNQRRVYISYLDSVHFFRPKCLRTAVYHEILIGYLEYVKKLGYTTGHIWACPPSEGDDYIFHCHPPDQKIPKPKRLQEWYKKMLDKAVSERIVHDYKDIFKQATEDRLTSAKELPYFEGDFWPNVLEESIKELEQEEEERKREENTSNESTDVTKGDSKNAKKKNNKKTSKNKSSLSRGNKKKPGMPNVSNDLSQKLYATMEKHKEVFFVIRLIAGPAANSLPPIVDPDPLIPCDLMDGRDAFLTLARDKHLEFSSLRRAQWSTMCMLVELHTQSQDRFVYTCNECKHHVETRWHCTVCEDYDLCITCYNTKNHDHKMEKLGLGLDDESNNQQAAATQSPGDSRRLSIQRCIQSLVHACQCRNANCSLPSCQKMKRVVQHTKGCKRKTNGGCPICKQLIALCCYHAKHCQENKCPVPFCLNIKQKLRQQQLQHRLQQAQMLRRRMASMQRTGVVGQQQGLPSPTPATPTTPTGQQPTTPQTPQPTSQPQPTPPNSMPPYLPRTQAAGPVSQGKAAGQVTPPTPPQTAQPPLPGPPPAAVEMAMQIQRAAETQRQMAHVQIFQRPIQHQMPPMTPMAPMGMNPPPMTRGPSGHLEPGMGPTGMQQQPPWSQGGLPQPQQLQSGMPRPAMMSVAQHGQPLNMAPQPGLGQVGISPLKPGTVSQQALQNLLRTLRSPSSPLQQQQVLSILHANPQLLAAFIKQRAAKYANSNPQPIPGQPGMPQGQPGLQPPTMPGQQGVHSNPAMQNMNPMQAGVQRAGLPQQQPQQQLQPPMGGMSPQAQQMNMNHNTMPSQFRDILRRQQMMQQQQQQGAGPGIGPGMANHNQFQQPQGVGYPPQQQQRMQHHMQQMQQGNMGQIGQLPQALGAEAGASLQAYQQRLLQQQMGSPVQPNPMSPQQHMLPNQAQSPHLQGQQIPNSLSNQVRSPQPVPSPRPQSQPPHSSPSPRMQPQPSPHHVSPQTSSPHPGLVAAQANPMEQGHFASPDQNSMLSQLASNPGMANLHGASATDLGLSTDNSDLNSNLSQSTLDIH

p300 [2] = target: T1, p300; test: In vitro p300 HAT-dependent transcription assay from chromatin template; assay type: biochemical; design: Full-length p300 was also purified from the recombinant baculovirus infected Sf21 cells as a His6-tagged protein; His6; made in house; host or cells: Sf21 insect cells (recombinant baculovirus)
Method: In Vitro Chromatin assembly: Chromatin template for in vitro transcription experiments was assembled and characterized as described earlier (8).
(§3) In Vitro Transcription Assay: Transcription assays were essentially carried out as described elsewhere (8), with minor modifications. The scheme of transcription is enumerated in FIG. 6A. Briefly, 30 ng of DNA/equivalent amount of chromatin template was incubated with 30 ng of activator (Gal4-VP16) in a buffer containing 4 mM HEPES (pH 7.8), 20 mM KCl, 2 mM DTT, 0.2 mM PMSF, 10 mM sodium butyrate, 0.1 mg/ml BSA, 2% glycerol (8). The activating compounds were added to the acetylation reaction along with p300 and acetyl-CoA, and incubated for 30 min. at 30° C. This was followed by addition of the p300 specific inhibitor Lysyl CoA (5 nom) to quench the acetylation reaction.
(§4) For inhibitors, the HAT p300 was pre-incubated with indicated amounts of inhibitor on ice for 20 min., following which it was added to the acetylation reaction in the transcription assay. […] The ^32P-radiolabeled transcript was extracted with phenol-chloroform, ethanol precipitated, dried pellet dissolved in loading dye (8 M Urea, 0.005% bromophenol blue and xylene cyanol) and analyzed on 5% urea-polyacrylamide gel. […] Quantification of transcription was done by Fuji BAS system. Quantitation of DNA and chromatin transcription data represents three independent experiments.
Target sequence in this assay (Q09472 whole entry): as above

PCAF = target: T2, PCAF (Homo sapiens, UniProt Q92831); test: HAT assay (filter binding) with PCAF and core histones; assay type: biochemical
T2 construct: FLAG; made in house; host or cells: insect cell line (printed 'Si 217', probably Sf21), recombinant baculovirus
Source text: as §1
HAT assays were performed as described elsewhere (12). […] The reaction mixture was then blotted onto P-81 (Whatman) filter papers and radioactive counts were recorded on a Wallac 1409 liquid scintillation counter.

[3] = tested on: basal transcription machinery; test: In vitro transcription assay from histone-free DNA template; assay type: biochemical, human; conditions: compared to DMSO control
Method: as §3
as §4, with “assay. For the DNA transcription assays and chromatin transcription inhibition assays, the Lysyl CoA step was omitted.” for “assay.”

[4] = tested on: histone acetyltransferases; test: HAT inhibition test of salicylic acid and benzoic acid; assay type: biochemical
Method: as §2

p300 [5] = target: T1, p300; conditions: cited from earlier work
Target sequence in this assay (Q09472 whole entry, species assumed): as the sequence (Q09472 whole entry) above

T2 sequence (Q92831 whole entry): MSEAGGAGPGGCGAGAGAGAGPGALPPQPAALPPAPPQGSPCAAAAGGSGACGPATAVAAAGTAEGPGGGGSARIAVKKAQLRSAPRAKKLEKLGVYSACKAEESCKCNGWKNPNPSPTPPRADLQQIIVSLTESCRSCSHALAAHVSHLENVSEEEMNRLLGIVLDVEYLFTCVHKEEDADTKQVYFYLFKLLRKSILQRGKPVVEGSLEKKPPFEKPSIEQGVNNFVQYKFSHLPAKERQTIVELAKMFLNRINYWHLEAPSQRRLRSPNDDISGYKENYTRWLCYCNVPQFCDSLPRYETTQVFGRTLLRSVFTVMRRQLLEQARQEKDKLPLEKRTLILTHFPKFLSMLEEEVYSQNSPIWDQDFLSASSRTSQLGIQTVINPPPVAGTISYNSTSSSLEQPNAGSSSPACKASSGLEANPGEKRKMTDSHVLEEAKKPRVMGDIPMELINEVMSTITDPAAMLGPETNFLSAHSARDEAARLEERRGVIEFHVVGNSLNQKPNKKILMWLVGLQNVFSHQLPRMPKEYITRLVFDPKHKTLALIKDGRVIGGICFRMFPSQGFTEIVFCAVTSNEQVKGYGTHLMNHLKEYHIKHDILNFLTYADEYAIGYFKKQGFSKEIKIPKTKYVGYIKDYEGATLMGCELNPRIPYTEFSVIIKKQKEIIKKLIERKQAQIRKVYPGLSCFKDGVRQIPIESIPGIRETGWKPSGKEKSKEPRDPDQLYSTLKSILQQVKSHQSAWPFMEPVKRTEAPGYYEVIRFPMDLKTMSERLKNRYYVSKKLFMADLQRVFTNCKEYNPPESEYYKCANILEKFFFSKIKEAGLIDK

increase in histone acetylation levels (p300 [1]): ~5 fold | enhancement of p300 HAT activity (p300 [1]; human core histones): specifically enhances | enhancement of levels of HAT-dependent transcription from chromatin template over DMSO control (p300 [2]; added with p300 and acetyl CoA, 30 min acetylation): 1.6 fold
Molecule: CCCCCCCCCCCCCCCc1cccc(OCC)c1C(=O)Nc1ccc(Cl)c(C(F)(F)F)c1 [CTPB, N-(4-Chloro-3-trifluoromethyl-phenyl)-2-ethoxy-6-pentadecyl-benzamide]

inhibition of HAT activity of PCAF (PCAF): inhibits | inhibitory activity towards p300 HAT activity (p300 [1]): inhibits | type of p300-HAT inhibition (double reciprocal plot 1/c.p.m. vs. 1/[Acetyl CoA]) (p300 [1]; increasing [3H]-acetyl CoA, constant amount of core histones): non-competitive | inhibitory activity towards p300 HAT activity (p300 [1]; listed as Anacardic acid): equally potent inhibitory activity | inhibition of p300 HAT activity dependent transcription from the chromatin template (p300 [2]): inhibits
Molecule: CCCCCCCCCCCCCCCc1cccc(O)c1C(=O)O [anacardic acid, 2-hydroxy-6-pentadecylbenzoic acid]
effect on transcript levels from DNA template [3]: but not DNA transcription

Molecule: O=C(O)c1ccccc1 [benzoic acid]
inhibitory activity against histone acetyltransferases [4]: Neither salicylic acid nor benzoic acid shown any inhibitory activity

Molecule: O=C(O)c1ccccc1O [salicylic acid]
inhibitory activity against histone acetyltransferases [4]: Neither salicylic acid nor benzoic acid shown any inhibitory activity

Molecule: Lys-CoA
inhibition of HAT activity of p300 (p300 [5]): specifically inhibit
